Assay results as given in patent US8987249B2, “Substituted 2-Aza-bicyclo[2.2.1]heptane-3-carboxylic acid (benzyl-cyano-methyl)-amides inhibitors of Cathepsin C” (Boehringer Ingelheim International GmbH, priority 2013, dated 2015).

Experiments:
[1] = target: recombinant human Cathepsin K (Homo sapiens (Human), UniProt P43235); test: Inhibition of human Cathepsin K; format: biochemical; settings: substrate Z-Gly-Pro-Arg-AMC
In short: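 Proenzyme activated in pH 3.5 sodium acetate for 30 min at room temperature. Enzyme (2 ng/μL final) preincubated 10 min with compound (0.1 nM–100 μM, 1% DMSO) in pH 5.5 acetate/EDTA/L-cysteine buffer, then reacted 60 min at room temperature with Z-Gly-Pro-Arg-AMC. Stopped with 1 μM E64; fluorescence Ex 360/Em 460 nm; IC50 from background-subtracted percent of vehicle control.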

[2] = target: recombinant human DPPI (Cathepsin C) (Homo sapiens (Human), UniProt P53634); test: Inhibition of human DPPI (Cathepsin C); format: biochemical; settings: substrate Gly-Arg-AMC
Chain of recombinant human DPPI (Cathepsin C) (P53634 231-394): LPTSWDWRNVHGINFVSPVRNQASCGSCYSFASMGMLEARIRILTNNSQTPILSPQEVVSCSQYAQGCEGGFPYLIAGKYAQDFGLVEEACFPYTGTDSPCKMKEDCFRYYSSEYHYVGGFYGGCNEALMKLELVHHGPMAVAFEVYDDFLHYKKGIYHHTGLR
Chain of recombinant human DPPI (Cathepsin C) (P53634 395-463): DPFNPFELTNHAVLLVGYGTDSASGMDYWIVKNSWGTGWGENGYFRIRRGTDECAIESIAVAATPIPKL
Chain of recombinant human DPPI (Cathepsin C) (P53634 25-134): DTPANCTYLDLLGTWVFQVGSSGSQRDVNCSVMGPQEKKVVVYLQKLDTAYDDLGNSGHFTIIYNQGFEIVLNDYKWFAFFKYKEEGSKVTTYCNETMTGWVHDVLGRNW
In short: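 Recombinant human DPPI in MES buffer pH 6.0 (5 mM DTT, 0.1% BSA); fluorogenic substrate at 50 μM final, 30 min at room temperature, stopped with 1 μM Gly-Phe-DMK. Background-subtracted fluorescence expressed as percent of vehicle control; IC50 derived.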

[3] = Determination of metabolic stability with human liver microsomes; settings: pooled human liver microsomes; for half-life at 1 μM: human, pH 7.6
Protocol: Determination of Metabolic Stability with Human Liver Microsomes
The metabolic degradation of the test compound is assayed at 37° C. with pooled human liver microsomes. The final incubation volume of 100 μl per time point contains TRIS buffer pH 7.6 (0.1 M), magnesium chloride (5 mM), microsomal protein (1 mg/ml) and the test compound at a final concentration of 1 μM. Following a short preincubation period at 37° C., the reactions are initiated by addition of beta-nicotinamide adenine dinucleotide phosphate, reduced form (NADPH, 1 mM) and terminated by transferring an aliquot into acetonitrile after different time points. Additionally, the NADPH-independent degradation is monitored in incubations without NADPH, terminated at the last time point. The [%] remaining test compound after NADPH independent incubation is reflected by the parameter c (control) (metabolic stability). The quenched incubations are pelleted by centrifugation (10,000 g, 5 min). An aliquot of the supernatant is assayed by LC-MS/MS for the amount of parent compound.
The half-life (t½ INVITRO) is determined by the slope of the semilogarithmic plot of the concentration-time profile.

Chain of recombinant human Cathepsin K (P43235 115-329): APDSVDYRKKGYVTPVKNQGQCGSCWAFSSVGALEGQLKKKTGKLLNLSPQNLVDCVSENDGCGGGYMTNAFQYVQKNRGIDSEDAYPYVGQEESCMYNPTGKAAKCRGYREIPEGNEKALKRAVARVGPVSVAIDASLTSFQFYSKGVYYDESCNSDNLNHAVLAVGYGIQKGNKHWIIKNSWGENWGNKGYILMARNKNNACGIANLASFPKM

Row | IC50 [1] [nM] | IC50 [2] [nM] | half-life at 1 μM [3] [h] | In vitro stability in human liver microsome incubations t½ ([3]; 1 μM test compound, 37° C., NADPH) [h] | SMILES
1 | 3000 | 4.7 | > 2.17 | – | N#C[C@H](Cc1ccc(-c2csc(C(=O)NC3CCOCC3)c2)cc1F)NC(=O)[C@H]1N[C@@H]2CC[C@H]1C2 [Example 235]
2 | 8800 | 15.2 | > 2.17 | – | CS(=O)(=O)c1cccc(-c2ccc(CC(C#N)NC(=O)[C@H]3N[C@@H]4CC[C@H]3C4)c(F)c2)c1 (stereo partly drawn) [Example 88]
3 | 3500 | 8.8 | > 2.17 | – | COCCN1CCN(c2ccc(C[C@@H](C#N)NC(=O)[C@H]3N[C@@H]4CC[C@H]3C4)c(F)c2)CC1 [Example 182]
4 | 5300 | 25.9 | > 2.17 | – | N#C[C@H](Cc1ccc(-n2cc(COC(=O)N3CCCC3)nn2)cc1F)NC(=O)[C@H]1N[C@@H]2CC[C@H]1C2 [Example 106]
5 | 2000 | 3.7 | 1.53 | – | N#C[C@H](Cc1ccc(-c2cccc(C(N)=O)c2)cc1F)NC(=O)[C@H]1N[C@@H]2CC[C@H]1C2 [Example 244]
6 | 3300 | 16.5 | > 2.17 | – | N#C[C@H](Cc1ccc(-c2ccc(C(=O)NC3CCOCC3)cc2)cc1F)NC(=O)[C@H]1N[C@@H]2CC[C@H]1C2 [Example 200]
7 | 2000 | 3.4 | > 2.17 | – | N#C[C@H](Cc1ccc(-c2cc(C(N)=O)co2)cc1F)NC(=O)[C@H]1N[C@@H]2CC[C@H]1C2 [Example 239]
8 | 3500 | 6.5 | > 2.08 | – | C[S+]([O-])c1ccc(-c2ccc(C[C@@H](C#N)NC(=O)[C@H]3N[C@@H]4CC[C@H]3C4)c(F)c2)cc1 (stereo partly drawn) [Example 274]
9 | 6800 | 14.1 | > 2.17 | – | CS(=O)(=O)c1ccc(-c2ccc(C[C@@H](C#N)NC(=O)[C@H]3N[C@@H]4CC[C@H]3C4)c(F)c2)c(F)c1 [Example 86]
10 | 11700 | 16 | 1.47 | – | CN1C(=O)C(C)(C)c2ccc(-c3ccc(C[C@@H](C#N)NC(=O)[C@H]4N[C@@H]5CC[C@H]4C5)c(F)c3)cc21 [Example 199]
11 | 6600 | 7.8 | > 2.17 | – | CN1CC2(C1)CN(c1ccc(C[C@@H](C#N)NC(=O)[C@H]3N[C@@H]4CC[C@H]3C4)c(F)c1)C2 [Example 330]
12 | 23100 | 3.8 | > 2.17 | – | N#CC(Cc1ccc2c(c1)c(=O)[nH]c1c(F)c(F)ccc12)NC(=O)[C@H]1N[C@@H]2CC[C@H]1C2 (stereo partly drawn) [Example 300]
13 | 2300 | 8.3 | 1.58 | – | N#C[C@H](Cc1ccc(-c2cnn(CC3CCOCC3)c2)cc1F)NC(=O)[C@H]1N[C@@H]2CC[C@H]1C2 [Example 57]
14 | 4300 | 31.8 | > 2.17 | – | COCc1cn(-c2ccc(C[C@@H](C#N)NC(=O)[C@H]3N[C@@H]4CC[C@H]3C4)c(F)c2)nn1 [Example 111]
15 | 6500 | 7.3 | > 2.17 | – | N#CC(Cc1ccc(-c2ccc3c(c2)CCNC3=O)cc1F)NC(=O)[C@H]1N[C@@H]2CC[C@H]1C2 (stereo partly drawn) [Example 49]
16 | 5400 | 13.1 | > 2.17 | – | CCC(C)(O)Cc1cn(-c2ccc(C[C@@H](C#N)NC(=O)[C@H]3N[C@@H]4CC[C@H]3C4)c(F)c2)nn1 (stereo partly drawn) [Example 82]
17 | 5500 | 19.8 | 1.37 | – | N#C[C@H](Cc1ccc(-c2cc(-c3ccccc3)no2)cc1F)NC(=O)[C@H]1N[C@@H]2CC[C@H]1C2 [Example 96]
18 | 2900 | 5.3 | > 2.17 | – | CN1CCc2cc(-c3ccc(C[C@@H](C#N)NC(=O)[C@H]4N[C@@H]5CC[C@H]4C5)c(F)c3)ccc2C1=O [Example 42]
19 | 22200 | 5 | > 2.17 | – | Cn1c(=O)c2cc(CC(C#N)NC(=O)[C@H]3N[C@@H]4CC[C@H]3C4)ccc2c2ccc(C#N)cc21 (stereo partly drawn) [Example 303]
20 | 4500 | 26.9 | > 2.17 | – | CC(C)C(O)Cc1cn(-c2ccc(C[C@@H](C#N)NC(=O)[C@H]3N[C@@H]4CC[C@H]3C4)c(F)c2)nn1 (stereo partly drawn) [Example 109]
21 | 4600 | 13.5 | > 2.17 | – | N#C[C@H](Cc1ccc(N2CCN(CC3CCCO3)CC2)cc1F)NC(=O)[C@H]1N[C@@H]2CC[C@H]1C2 (stereo partly drawn) [Example 154]

Row | IC50 [1] [nM] | IC50 [2] [nM] | half-life at 1 μM [3] [h] | In vitro stability in human liver microsome incubations t½ ([3]; 1 μM test compound, 37° C., NADPH) [h] | SMILES
22 | 13300 | 3.7 | 1.83 | – | CN1C(=O)Cc2ccc(-c3ccc(C[C@@H](C#N)NC(=O)[C@H]4N[C@@H]5CC[C@H]4C5)c(F)c3F)cc21 [Example 24]
23 | 1900 | 3.3 | > 2.17 | – | N#C[C@H](Cc1ccc(C2=CCN3CCOCC3C2)cc1F)NC(=O)[C@H]1N[C@@H]2CC[C@H]1C2 (stereo partly drawn) [Example 281]
24 | 3600 | 6.3 | > 2.17 | – | N#C[C@H](Cc1ccc(N2CCN3CCOC[C@@H]3C2)cc1F)NC(=O)[C@H]1N[C@@H]2CC[C@H]1C2 [Example 249]
25 | 6800 | 36.7 | > 2.17 | – | N#C[C@H](Cc1ccc(-c2cc[nH]n2)cc1F)NC(=O)[C@H]1N[C@@H]2CC[C@H]1C2 [Example 114]
26 | 4500 | 17.5 | > 2.17 | – | CN1CCC(Oc2ccc(C[C@@H](C#N)NC(=O)[C@H]3N[C@@H]4CC[C@H]3C4)c(F)c2)CC1 [Example 319, (1S,2S,4R)—N-[(1S)-1-cyano-2-[2-fluoro-4-[(1-methyl-4-piperidyl)oxy]phenyl]ethyl]-3-azabicyclo[2.2.1]heptane-2-carboxamide]
27 | 2500 | 10.7 | > 2.17 | – | CN1CCN(c2ccc(C[C@@H](C#N)NC(=O)[C@H]3N[C@@H]4CC[C@H]3C4)c(F)c2)CC1 [Example 6, (1S,2S,4R)—N-[(1S)-1-cyano-2-[2-fluoro-4-(4-methylpiperazin-1-yl)phenyl]ethyl]-3-azabicyclo[2.2.1]heptane-2-carboxamide]
28 | 2800 | 2 | > 2.08 | – | CN1C(=O)Cc2ccc(-c3ccc(C[C@@H](C#N)NC(=O)[C@H]4N[C@@H]5CC[C@H]4C5)c(F)c3)cc21 [Example 2, (1S,2S,4R)—N-[(1S)-1-cyano-2-[2-fluoro-4-(1-methyl-2-oxo-indolin-6-yl)phenyl]ethyl]-3-azabicyclo[2.2.1]heptane-2-carboxamide]
29 | 2100 | 11.8 | > 2.17 | – | CS(=O)(=NC#N)c1ccc(-c2ccc(C[C@@H](C#N)NC(=O)[C@H]3N[C@@H]4CC[C@H]3C4)c(F)c2)cc1 (stereo partly drawn) [Example 263]
30 | 8200 | 22.3 | > 2.17 | – | Cn1nc(C(F)(F)F)cc1-c1ccc(C[C@@H](C#N)NC(=O)[C@H]2N[C@@H]3CC[C@H]2C3)c(F)c1 [Example 100]
31 | 800 | 1 | > 2.17 | – | N#C[C@H](Cc1cc2c(=O)[nH]c3c(F)c(F)ccc3c2cc1F)NC(=O)[C@H]1N[C@@H]2CC[C@H]1C2 [Example 324]
32 | 11100 | 8.4 | > 2.17 | – | Cc1cc(-c2ccc(CC(C#N)NC(=O)[C@H]3N[C@@H]4CC[C@H]3C4)c(F)c2)n[nH]1 (stereo partly drawn) [Example 58]
33 | 4500 | 8.2 | > 2.17 | – | CS(=O)(=O)c1ccc(-c2ccc(CC(C#N)NC(=O)[C@H]3N[C@@H]4CC[C@H]3C4)c(F)c2)cc1 (stereo partly drawn) [Example 54]
34 | 900 | 0.8 | > 2.17 | – | N#C[C@H](Cc1cc2c(=O)[nH]c3cc(F)ccc3c2cc1F)NC(=O)[C@H]1N[C@@H]2CC[C@H]1C2 [Example 323]
35 | 4600 | 9.6 | 1.48 | – | N#C[C@H](Cc1ccc(-n2cc(C3CC3)nn2)cc1F)NC(=O)[C@H]1N[C@@H]2CC[C@H]1C2 [Example 67]
36 | 3600 | 7.4 | > 2.17 | – | N#C[C@H](Cc1ccc(-c2cnn(CC3CCCO3)c2)cc1F)NC(=O)[C@H]1N[C@@H]2CC[C@H]1C2 (stereo partly drawn) [Example 50]
37 | 5900 | 1.8 | > 2.17 | – | N#C[C@H](Cc1ccc(-c2csc(C(=O)N3CCOCC3)c2)cc1F)NC(=O)[C@H]1N[C@@H]2CC[C@H]1C2 [Example 230]
38 | 12200 | 18.9 | > 2.17 | – | N#Cc1ccc(-c2ccc(C[C@@H](C#N)NC(=O)[C@H]3N[C@H]4C[C@@H]3[C@@H]3C[C@@H]34)c(F)c2)cc1F [Example 132]
39 | 3300 | 3.8 | – | 2.17 | CS(=O)(=O)c1ccc(-c2ccc(C[C@@H](C#N)NC(=O)[C@H]3N[C@@H]4CC[C@H]3C4)c(F)c2)cc1OCC(F)F [Example 252]
40 | 2500 | 20.1 | > 2.17 | – | CCN1CCC(c2ccc(C[C@@H](C#N)NC(=O)[C@H]3N[C@@H]4CC[C@H]3C4)c(F)c2)CC1 [Example 201]
41 | 9700 | 8.6 | > 2.17 | – | N#C[C@H](Cc1ccc(-c2ccc3c(c2)NC(=O)C3)c(F)c1F)NC(=O)[C@H]1N[C@@H]2CC[C@H]1C2 [Example 181]
42 | 1700 | 9 | > 2.17 | – | CN1CCN(C(=O)c2ccc(-c3ccc(C[C@@H](C#N)NC(=O)[C@H]4N[C@@H]5CC[C@H]4C5)c(F)c3)cc2)CC1 [Example 185]
